Experimental data: patent US12540165B2, “HSP fusion protein with anti-chemorepellant agent for treatment of cancer” (The General Hospital Corporation, priority 2016, dated 2026)
Where two headings read alike, the source gives them in different places.

How the values were obtained:
[1] = system: 40L mouse mesothelioma cell line; experiment: Immune profiling by flow cytometry of spleens and tumors of 40L tumor-bearing mice; format: in vivo, C57BL/6 mice
[2] = system: AE17 mouse mesothelioma cell line; experiment: Immune profiling by flow cytometry of spleens, lymph nodes and tumors of AE17 tumor-bearing mice; format: in vivo, C57BL/6 mice
[3] = system: AE17 mouse mesothelioma cell line; experiment: AE17 intraperitoneal malignant mesothelioma model: tumor weight and survival (Example 5); format: in vivo, C57BL/6 mice; conditions: compared to saline
[4] = system: 40L mouse mesothelioma cell line; experiment: 40L intraperitoneal malignant mesothelioma model: tumor weight and survival (Example 5); format: in vivo, C57BL/6 mice; conditions: compared to saline
[5] = system: 40L mouse mesothelioma cell line; experiment: Ex vivo restimulation with recombinant mesothelin, intracellular IFN-γ in CD8+ T cells, 40L mice; design: species or system C57BL/6 mice; conditions: splenic CD8+ T cells, compared to saline
Foxp3^+ Treg cells = conditions: AMD3100 5 μg/ml, 24 hours
[6] = system: Luc-AE17 mesothelioma cancer cells; experiment: Luc-AE17 mesothelioma model, survival (Example 4); format: in vivo, C57BL/6 mice; conditions: compared to saline, VIC-008 20 μg, AMD3100 1 μg/g body weight, once a week for four weeks
[7] = system: AE17 mouse mesothelioma cell line; experiment: Ex vivo restimulation with recombinant mesothelin, intracellular IFN-γ in CD8+ T cells, AE17 mice; design: species or system C57BL/6 mice; conditions: compared to saline
[8] = system: Luc-40L mesothelioma cancer cells; experiment: Luc-40L mesothelioma model, survival (Example 4); format: in vivo, C57BL/6 mice; conditions: compared to saline, VIC-008 20 μg, AMD3100 1 μg/g body weight, once a week for four weeks
[9] = spleens, 40L, compared to saline
[10] = tumors, 40L, compared to saline
[11] = lymph nodes, AE17, compared to saline
[12] = spleens, AE17, compared to saline
[13] = tumors, AE17, compared to saline

c1cc(CN2CCCNCCNCCCNCC2)ccc1CN1CCCNCCNCCCNCC1 [AMD3100, 1,1′-[1,4-phenylenebis(methylene)]bis[1,4,8,11-tetraazacyclotetradecane]]
proportions of Treg cells ([1]; spleens of 40L tumor-bearing mice): did not alter
proportion of CD8+ T cells in total live cells [1, 9]: did not increase
proportion of PD-1-expressing CD8+ T cells [1, 9]: significantly fewer
IL-2+ CD40L+ cells in the Foxp3+ CD25− Treg population ([1]; tumors of 40L mice): significantly more cells
ratio of CD25− cells to CD25+ cells within the Foxp3+ population ([1]; tumors of 40L mice): significantly increased
proportion of CD8+ T cells in total live cells [1, 10]: did not increase
proportion of PD-1-expressing CD8+ T cells [1, 10]: significantly fewer
proportions of Treg [1, 10]: significantly decreased
ratio of CD8+ T cells to Treg [1, 10]: increased
IL-2+ CD40L+ cells in the Foxp3+ CD25− Treg population ([2]; lymph nodes of AE17 mice): significantly more cells
cell ratio of CD8+ T cells to Treg cells [2, 11]: significantly increased
proportion of CD8+ T cells in total live cells [2, 11]: did not increase
proportion of PD-1-expressing CD8+ T cells [2, 11]: significantly fewer
ratio of CD25− cells to CD25+ cells within the Foxp3+ population ([2]; lymph nodes, AE17 model): significantly increased
Treg in the lymph nodes ([2]; lymph nodes, AE17 tumor-bearing mice): generally reduced
proportion of CD8+ T cells in total live cells [2, 12]: did not increase
proportion of PD-1-expressing CD8+ T cells [2, 12]: significantly fewer
proportion of CD8+ T cells in total live cells [2, 13]: did not increase
proportion of PD-1-expressing CD8+ T cells [2, 13]: significantly fewer
proportions of Treg [2, 13]: significantly decreased
ratio of CD8+ T cells to Treg [2, 13]: increased
animal survival [3]: only modest benefit to survival
animal survival [4]: only modest benefit to survival
mesothelin-specific IFN-γ expression in CD8+ T cells [5]: did not enhance
ratio of the proportion of CD25− cells to CD25+ cells in the Foxp3+ CD4+ population (Foxp3^+ Treg cells; no anti-CD3/CD28 stimulation): did not change
conversion of Foxp3+ CD25− Treg into IL-2+ CD40L+ cells (Foxp3^+ Treg cells; with anti-CD3/CD28 stimulation): converted more
ratio of the proportion of CD25− cells to CD25+ cells in the Foxp3+ CD4+ population (Foxp3^+ Treg cells; with anti-CD3/CD28 stimulation): significantly increased
survival of tumor-bearing mice [6]: slight effect on survival
mesothelin-specific IFN-γ expression in CD8+ T cells ([7]; lymph node CD8+ T cells): did not enhance
mesothelin-specific IFN-γ expression in CD8+ T cells ([7]; splenic CD8+ T cells): did not enhance
survival of tumor-bearing mice [8]: slight effect on survival
